# Laboratory results as given in patent US12606529B2, “Sulfur and amide tropolone inhibitors of nucleotidyl transferases and uses therefor” (Saint Louis University, priority 2019, dated 2026).
# Where two headings read alike, the source gives them in different places.
# Key:
# HBV replication = HBV replication inhibition in HepDES19 cells (strand-preferential qPCR); details: for EC50: Hepatitis B virus
# Procedure: Cells used for toxicity and HBV studies.
# HBV replication inhibition studies. HepDES19 cells were seeded in 96-well plates at 4×10^4 cells per well in the absence of tetracycline. Test compounds in a final DMSO concentration of 1% were applied to cells 48 hours after induction of HBV replication and cells were incubated with compounds for 72 hours. Cells were washed in 200 μL of phosphate buffered saline (PBS) and lysed in 150 μL of core lysis buffer (10 mM Tris pH 7.4, 1% Tween20, 150 mM NaCl). Cells were incubated at room temperate on an orbital shaker at 350 rpm for 40 minutes. Cell lysate was transferred to a 96 well polymerase chain reaction (PCR) plate and centrifuged at 3300×g for 5 minutes. The supernatant (50 μL) from the cell lysate was transferred to a 96-well PCR plate and mixed with 20 units of micrococcal nuclease and 100 μM CaCl2. The lysate was incubated for 1 hour at 37° C., and then the nuclease was inactivated at 70° C. for ten minutes. Qiagen protease (0.005 Anson units) was added to the lysate and the mixture was incubated overnight. Qiagen protease was then inactivated at 95° C. for ten minutes.
# The crude lysate was used as the template for strand-preferential quantitative polymerase chain reaction (q-PCR) analysis. Quantitative PCR was performed with 40 cycles of 95° C. for 15 s and 60° C. for 1 minute employing the Kappa Probe Force universal PCR master mix.
# [1] = system: C. neoformans var. grubii, KN99; experiment: C. neoformans growth inhibition assay (limiting dilution); assay type: cell-based, Cryptococcus neoformans; details: Cryptococcus neoformans, 48 h, 48 h, 35° C., read-out: C. neoformans MIC80
# Procedure: Cell types used for C. neoformans studies. All inhibition assays were performed with C. neoformans var. grubii, KN99 (serotype A, MAT). Two clinical strains of C. neoformans var. grubii, serotype A, were provided by Tamara Doering and Andre Spec. […] Cells were diluted to OD650 0.001 in YNB-02 02 (0.67% yeast nitrogen base, 0.2% dextrose, pH 7.0 with 50 mM MOPs)+1% DMSO prior to addition to the plates for the inhibition assays.
# C. neoformans growth inhibition assays. Compounds were tested in a limiting dilution assay with a starting optical density (at 650 nm) of 0.001 in YNB-02 plus 1% DMSO. Cells plus compound were incubated in 96-well clear round bottom plates covered with a Breath-easy® membrane without shaking for 48 hours at 35° C. Before measuring cell density, plates were shaken on a microtiter plate shaker at 900 rpm for 3 minutes to resuspend cells and optical density was measured at 650 nm. […] Each assay was done in triplicate and all values are the average of two or more independent assays. The data are presented as the average cell density as a percent of DMSO-only treated cells. MICs are reported as the minimal concentration needed to inhibit 80% of C. neoformans growth relative to vehicle-treated controls.
# HSV-1 = experiment: Anti-HSV-1 replication assay (Vero cells, plaque titer); assay type: cell-based, herpes simplex virus 1; details: Human alphaherpesvirus 1, Vero, values separated by / are repeats; for log reduction at 0.33 µM: compound at 0.33 μM, read-out: HSV-1 suppression 0.33 μM; for log reduction at 5 µM: compound at 5 μM, read-out: HSV-1 suppression 5 μM; for log reduction at 1 µM: compound at 1 μM, read-out: HSV-1 suppression 1 μM
# in vitro = details: human, HepDES19 cells
# Procedure: Cells used for toxicity and HBV studies. […] Cells were maintained in Dulbecco's modified Eagle's medium (DMEM)/F12 media supplemented with 10% fetal bovine serum (FBS) and 1% penicillin/streptomycin (P/S) with 1 μg/mL tetracycline. Synchronized expression of HBV pgRNA was induced by removing tetracycline from the culture medium.
# Cytotoxicity Assays. Qualitative assessments of cytotoxicity were done visually by inspecting the cells in the primary screening assays. […] The next day the compounds were added at 0.78 to 100 μM in a final concentration of 1% (v/v) DMSO, and the cells were incubated for 24 hours under conditions identical to those employed for the viral replication inhibition assays. Mitochondrial toxicity was measured by incubating the cells with 0.25 mg/mL thiazolyl blue tetrazolium bromide (MTT, SigmaAldrich Chemical Co.), the cultures were incubated for 60 mM, metabolites were solubilized in acidic isopropanol, and absorbance was read at 570 nm. CC50 values were calculated by non-linear curve fitting using GraphPad Prism using the three-parameter variable-response log(inhibitor)-versus-response algorithm with the bottom value set to zero.
# human RNaseH1 = molecular target: T1, human RNaseH1 (Homo sapiens, UniProt O60930); experiment: Biochemical inhibition of human RNaseH1 activity; details: Table 2 amides; read-out: HuRH1 IC50
# T1 sequence (O60930 1-286): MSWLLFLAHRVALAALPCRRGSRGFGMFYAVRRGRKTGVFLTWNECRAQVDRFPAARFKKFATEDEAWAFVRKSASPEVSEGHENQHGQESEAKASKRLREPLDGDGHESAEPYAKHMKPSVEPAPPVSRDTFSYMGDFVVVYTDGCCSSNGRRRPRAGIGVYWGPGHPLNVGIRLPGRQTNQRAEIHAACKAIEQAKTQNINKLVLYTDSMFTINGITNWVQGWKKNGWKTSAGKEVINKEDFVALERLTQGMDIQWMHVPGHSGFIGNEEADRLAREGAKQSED
# Procedure: Biochemical inhibition of human RNaseH1 activity. Quantitative inhibition of the human RNaseH1 in the biochemical assays was assessed using a molecular beacon assay as described previously (Edwards et al., 2017). Recombinant human RNaseH 1 (0.3 μg) was incubated with 100 nM RNA:DNA substrate, 50 mM HEPES pH 8.0, 100 mM NaCl, 2 mM Tris(2-carboxyethyl)phosphine hydrochloride (TCEP), 0.05% Tween20, 5 units of RNaseOut, test compounds (0 to 500 μM), and 5% DMSO in a 100 μL reaction volume. The substrate was formed by annealing a complementary RNA oligonucleotide to a hairpin DNA oligonucleotide to hold the hairpin DNA oligonucleotide in an open conformation. The DNA oligonucleotide has a 5′ fluorescein reporter and a 3′ black hole quencher. When the RNA is degraded from the substrate the DNA oligonucleotide closes to form a hairpin structure, decreasing in signal intensity. Reactions were initiated with 5 mM MgCl2 and fluorescence was read using a Synergy HTS multi-mode plate reader at 37° C. Alternatively, the HBV RNaseH version used was MBP-HRHgtCΔ5, a genotype C isolate which lacks the C-terminal 35 amino acids of the HBV RNaseH domain that are predicted to be unstructured. Quantitative inhibition of the human RNaseH1 in biochemical assays was assessed using a FRET-based RNaseH assay under conditions previously reported for an RNaseH molecular beacon assay (Edwards et al., 2017). […] Cleavage of the RNA strand released the fluorescein from quenching, increasing fluorescence. Reactions were monitored for 90 min at 37° C. in a plate reader and initial reaction rates were calculated. Reactions contained escalating concentrations of the compounds.
# [2] = HepDES19, read-out: HBV EC50, Table 3 sulfur compounds, HBV replication, HepDES19 cells
# [3] = CC50, Table 3 sulfur compounds, MTT
# [4] = Table 2 amides, tested 0.19 to 50 μM
Structure (SMILES),EC50 (HBV replication; [2]) [µM],MIC80 ([1]; Table 3 sulfur compounds) [µM],log reduction at 5 µM (HSV-1; Table 3 sulfur compounds),CC50 at 24 h (in vitro; [3]) [µM],IC50 (human RNaseH1) [µM],"MIC80 [1, 4] [µM]","CC50 at 24 h (in vitro; CC50 (μM), Table 2 amides, MTT) [µM]",log reduction at 5 µM (HSV-1; Table 2 amides),further results
Cc1cc(O)c(=O)c(O)cc1S(=O)(=O)c1ccccc1 [compound 336],0.68,50,1.57,–,–,–,–,–,log reduction at 0.33 µM (HSV-1; Table 3 sulfur compounds): 0.13
Cc1cc(O)c(=O)c(O)cc1S(=O)(=O)c1ccc(-c2ccccc2)cc1 [compound 337],5.73,50,–,47.4,–,–,–,–,log reduction at 0.33 µM (HSV-1; Table 3 sulfur compounds): 0.28
Cc1ccc(S(=O)(=O)c2cc(O)c(=O)c(O)cc2C)cc1 [compound 367],16.1,24,0.49,23,–,–,–,–,log reduction at 1 µM (HSV-1; Table 3 sulfur compounds): 0
CS(=O)(=O)c1ccc(O)c(=O)c(O)c1 [compound 382],0.58,50,–,79.5,–,–,–,–,"Therapeutic index (CC50/EC50) for HBV (TI, SI) (HBV replication): 136"
CSc1cccc(O)c(=O)c1O [compound 385],4.4,24,2.5,100,–,–,–,–,CC50 at 24 h (in vitro; CC50): 100 µM
CSc1ccc(SC)c(O)c(=O)c1O [compound 386],6.73,24,0.51,68.9,–,–,–,–,–
CS(=O)(=O)c1cccc(O)c(=O)c1O [compound 387],0.41,50,0.02,–,–,–,–,–,"EC50 (HBV replication; HepDES19, read-out: EC50 against HBV replication): 0.41 µM"
O=c1c(O)cccc(S(=O)(=O)c2ccccc2)c1O [compound 408],11.1,50,0.56,20.4,–,–,–,–,–
CCCCS(=O)(=O)c1cccc(O)c(=O)c1O [compound 535],2.02,50,–,19.2,–,–,–,–,log reduction at 1 µM (HSV-1; Table 3 sulfur compounds): 0.07
CCCCS(=O)(=O)c1ccc(S(=O)(=O)CCCC)c(O)c(=O)c1O [compound 536],50,50,0.35,100,–,–,–,–,CC50 at 24 h (in vitro; CC50): 100 µM; log reduction at 1 µM (HSV-1; Table 3 sulfur compounds): 0.09
CC(C)S(=O)(=O)c1cccc(O)c(=O)c1O [compound 537],0.51,50,–,20.6,–,–,–,–,"Therapeutic index (CC50/EC50) for HBV (TI, SI) (HBV replication): 41; log reduction at 1 µM (HSV-1; Table 3 sulfur compounds): 0.25"
Cc1cc(O)c(=O)c(O)cc1C(=O)Nc1cccc(OCc2ccccc2)c1 [compound 836],–,–,–,–,606 ± 482,4.5,5.4 ± 3.5,5.2,–
Cc1cc(O)c(=O)c(O)cc1C(=O)NC(CCC(=O)OC(C)(C)C)C(=O)OC(C)(C)C (centres unmarked) [compound 867],–,–,–,–,675 ± 563,4.3,5.2 ± 1.3,3.49,–
Cc1cc(O)c(=O)c(O)cc1C(=O)NC(CCC(=O)O)C(=O)O (centres unmarked) [compound 868],–,–,–,–,27.7 ± 20.3,50,100,0.0414,CC50 at 24 h (in vitro; CC50): 100 µM; log reduction at 1 µM (HSV-1; Table 2 amides): -0.15
Cc1cc(O)c(=O)c(O)cc1C(=O)NC(CCCCNC(=O)OC(C)(C)C)C(=O)OC(C)(C)C (centres unmarked) [compound 869],–,–,–,–,602 ± 273,9,14.6 ± 3.4,-0.147,–
Cc1cc(O)c(=O)c(O)cc1C(=O)NC(CC(C)C)C(=O)OC(C)(C)C (centres unmarked) [compound 870],–,–,–,–,289 ± 296,5,9.1 ± 2.7,0.811,–
Cc1cc(O)c(=O)c(O)cc1C(=O)N1CCN(C(=O)C2CCCCC2)CC1 [compound 872],–,–,–,–,93 ± 53.3,20,14.4 ± 3.7,0.643,log reduction at 1 µM (HSV-1; Table 2 amides): -0.158
Cc1cc(O)c(=O)c(O)cc1C(=O)N1CCN(C(=O)OC(C)(C)C)CC1 [compound 873],–,–,–,–,74.7 ± 23.1,20,19.5 ± 8.7,0.2,log reduction at 1 µM (HSV-1; Table 2 amides): -0.148
Cc1cc(O)c(=O)c(O)cc1C(=O)NCCNS(=O)(=O)c1ccc(C(F)(F)F)cc1 [compound 874],–,–,–,–,52.6,14,17.7 ± 6.7,-0.15,–
Cc1cc(O)c(=O)c(O)cc1C(=O)N1CCN(C(=O)c2ccc(Cl)cc2)CC1 [compound 875],–,–,–,–,17.2 ± 11,7,4.7 ± 1.8,1.32,log reduction at 1 µM (HSV-1; Table 2 amides): 0.0449
COc1ccc(C(=O)N2CCN(C(=O)c3cc(O)c(=O)c(O)cc3C)CC2)cc1 [compound 877],–,–,–,–,34.9 ± 7.2,14,16.5 ± 1.4,0.175,log reduction at 1 µM (HSV-1; Table 2 amides): -0.232
